Experimental data from US20240246964A1 (Arbutus Biopharma Corporation, priority 2021, published 2024).
pEC50, pIC50: −log10 of the molar value.

Assays:
[1] = target: human PD-L1 (Homo sapiens (Human), UniProt Q9NZQ7); experiment: T cell activation luciferase reporter cell culture system (T Cell Activation Assay); assay type: cell-based; details: luciferase reporter assay; PD-L1 aAPC/CHO-K1 cells with PD-1 effector Jurkat T cells
[2] = target: PD-L1 His protein / PD-1 Fc protein (Homo sapiens (Human), UniProt Q9NZQ7); experiment: HTRF Assay (PD-1/PD-L1 interaction); assay type: binding; details: PD-L1 His 6 nM, PD-1 Fc 6 nM
Chain of PD-L1 His protein / PD-1 Fc protein (Q9NZQ7 19-238): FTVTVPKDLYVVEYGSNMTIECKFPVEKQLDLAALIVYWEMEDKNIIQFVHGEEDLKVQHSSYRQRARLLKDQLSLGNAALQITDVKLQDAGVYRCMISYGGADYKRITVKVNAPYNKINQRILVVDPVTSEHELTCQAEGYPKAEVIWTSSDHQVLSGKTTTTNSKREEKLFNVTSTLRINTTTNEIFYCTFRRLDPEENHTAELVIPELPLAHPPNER

Chain of human PD-L1 (Q9NZQ7 19-290): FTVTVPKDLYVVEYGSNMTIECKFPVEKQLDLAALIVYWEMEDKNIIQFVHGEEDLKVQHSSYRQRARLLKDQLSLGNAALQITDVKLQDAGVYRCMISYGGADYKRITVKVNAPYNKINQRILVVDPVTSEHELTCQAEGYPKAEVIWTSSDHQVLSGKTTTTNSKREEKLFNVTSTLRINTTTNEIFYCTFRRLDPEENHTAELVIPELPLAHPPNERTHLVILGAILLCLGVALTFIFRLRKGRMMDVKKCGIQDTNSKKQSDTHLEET

| Compound | pEC50 [1] | pIC50 [2] |
| --- | --- | --- |
| COc1cc(-c2cccc(-c3ccnc(-c4cnc(CNC5CCOCC5)c(OC)c4)c3Cl)c2Cl)cnc1CNC1CCOCC1 [Compound 570, N-((5-(2-Chloro-3-(3-chloro-5′-methoxy-6′-(((tetrahydro-2H-pyran-4-yl)amino)methyl)-[2,3′-bipyridin]-4-yl)phenyl)-3-methoxypyridin-2-yl)methyl)tetrahydro-2H-pyran-4-amine] | ≤ 5.00 | 7.73 |
| COc1nc(-c2cccc(-c3nccc(-c4ccc(CNC5CCN(C(C)=O)CC5)c(OC)n4)c3Cl)c2Cl)ccc1CNC1CCN(C(C)=O)CC1 [Compound 572, 1-(4-(((6-(3-(5-(((1-Acetylpiperidin-4-yl)amino)methyl)-3′-chloro-6-methoxy-[2,4′-bipyridin]-2′-yl)-2-chlorophenyl)-2-methoxypyridin-3-yl)methyl)amino)piperidin-1-yl)ethan-1-one] | 7.76 | 9.72 |
| COc1nc(-c2cccc(-c3nccc(-c4ccc(CN5CC6(CNC(=O)C6)C5)c(OC)n4)c3Cl)c2Cl)ccc1CN1CC2(CNC(=O)C2)C1 [Compound 573, 2-((3′-Chloro-2′-(2-chloro-3-(6-methoxy-5-((7-oxo-2,6-diazaspiro[3.4]octan-2-yl)methyl)pyridin-2-yl)phenyl)-6-methoxy-[2,4′-bipyridin]-5-yl)methyl)-2,6-diazaspiro[3.4]octan-7-one] | 7.84 | 9.77 |
| COc1nc(-c2cccc(-c3nccc(-c4ccc(CNC5CCOCC5)c(OC)n4)c3Cl)c2Cl)ccc1CNC1CCOCC1 [Compound 574, N-((3′-Chloro-2′-(2-chloro-3-(6-methoxy-5-(((tetrahydro-2H-pyran-4-yl)amino)methyl)pyridin-2-yl)phenyl)-6-methoxy-[2,4′-bipyridin]-5-yl)methyl)tetrahydro-2H-pyran-4-amine] | 7.85 | 10.40 |
| COc1nc(-c2cccc(-c3nccc(-c4ccc(CNC[C@@H]5CCC(=O)N5)c(OC)n4)c3Cl)c2Cl)ccc1CNC[C@@H]1CCC(=O)N1 [Compound 575, (S)-5-((((3′-Chloro-2′-(2-chloro-3-(6-methoxy-5-(((((S)-5-oxopyrrolidin-2-yl)methyl)amino)methyl)pyridin-2-yl)phenyl)-6-methoxy-[2,4′-bipyridin]-5-yl)methyl)amino)methyl)pyrrolidin-2-one] | 7.85 | 9.96 |
| COc1cc(-c2nccc(-c3cccc(-c4ccc5c(CNC6CCN(C(C)=O)CC6)cn(C)c5n4)c3Cl)c2Cl)ccc1CN1CC2(CNC(=O)C2)C1 [Compound 579, 2-(4-(4-(3-(3-(((1-Acetylpiperidin-4-yl)amino)methyl)-1-methyl-1H-pyrrolo[2,3-b]pyridin-6-yl)-2-chlorophenyl)-3-chloropyridin-2-yl)-2-methoxybenzyl)-2,6-diazaspiro[3.4]octan-7-one] | 6.99 | 9.52 |
| COc1cc(-c2nccc(-c3cccc(-c4ccc5c(CN(C)C6CCN(C(C)=O)CC6)cn(C)c5n4)c3Cl)c2Cl)ccc1CNC1CCOCC1 [Compound 600, 1-(4-(((6-(2-Chloro-3-(3-chloro-2-(3-methoxy-4-(((tetrahydro-2H-pyran-4-yl)amino)methyl)phenyl)pyridin-4-yl)phenyl)-1-methyl-1H-pyrrolo[2,3-b]pyridin-3-yl)methyl)(methyl)amino)piperidin-1-yl)ethan-1-one] | 7.49 | 9.60 |
| COc1cc(-c2nccc(-c3cccc(-c4ccc5c(CN(C)C6CCN(C(C)=O)CC6)cn(C)c5n4)c3Cl)c2Cl)ccc1CN1CC2(C1)CN(C(C)=O)C2 [Compound 601, 1-(4-(((6-(3-(2-(4-((6-Acetyl-2,6-diazaspiro[3.3]heptan-2-yl)methyl)-3-methoxyphenyl)-3-chloropyridin-4-yl)-2-chlorophenyl)-1-methyl-1H-pyrrolo[2,3-b]pyridin-3-yl)methyl)(methyl)amino)piperidin-1-yl)ethan-1-one] | 6.96 | 9.64 |
| COc1cc(-c2nccc(-c3cccc(-c4ccc5c(CN(C)C6CCN(C(C)=O)CC6)cn(C)c5n4)c3Cl)c2Cl)ccc1CN1CC2(CNC(=O)C2)C1 [Compound 603, 2-(4-(4-(3-(3-(((1-Acetylpiperidin-4-yl)(methyl)amino)methyl)-1-methyl-1H-pyrrolo[2,3-b]pyridin-6-yl)-2-chlorophenyl)-3-chloropyridin-2-yl)-2-methoxybenzyl)-2,6-diazaspiro[3.4]octan-7-one] | 7.30 | 9.28 |
| COc1cc(-c2nccc(-c3cccc(-c4ccc5c(CNC6CCOCC6)cn(C)c5n4)c3Cl)c2Cl)ccc1CN1CC2(CNC(=O)C2)C1 [Compound 605, 2-(4-(3-Chloro-4-(2-chloro-3-(1-methyl-3-(((tetrahydro-2H-pyran-4-yl)amino)methyl)-1H-pyrrolo[2,3-b]pyridin-6-yl)phenyl)pyridin-2-yl)-2-methoxybenzyl)-2,6-diazaspiro[3.4]octan-7-one] | 6.20 | 9.47 |
| COc1cc(-c2nccc(-c3cccc(-c4ccc5c(CNC6CCOCC6)cn(C)c5n4)c3Cl)c2Cl)ccc1CNCCO [Compound 606, 2-((4-(3-Chloro-4-(2-chloro-3-(1-methyl-3-(((tetrahydro-2H-pyran-4-yl)amino)methyl)-1H-pyrrolo[2,3-b]pyridin-6-yl)phenyl)pyridin-2-yl)-2-methoxybenzyl)amino)ethan-1-ol] | 6.63 | 9.92 |
| COc1cc(-c2nccc(-c3cccc(-c4ccc5c(CNC6CCOCC6)cn(C)c5n4)c3Cl)c2Cl)ccc1CN1CC2(C1)CN(C(C)=O)C2 [Compound 609, 1-(6-(4-(3-Chloro-4-(2-chloro-3-(1-methyl-3-(((tetrahydro-2H-pyran-4-yl)amino)methyl)-1H-pyrrolo[2,3-b]pyridin-6-yl)phenyl)pyridin-2-yl)-2-methoxybenzyl)-2,6-diazaspiro[3.3]heptan-2-yl)ethan-1-one] | 5.00 | 9.66 |
| COc1cc(-c2ccnc(-c3cccc(-c4ccc(CNC5CCN(C(C)=O)CC5)c(OC)n4)c3Cl)c2Cl)ccc1CNC1CCN(C(C)=O)CC1 [Compound 621, 1-(4-(((6-(3-(4-(4-(((1-Acetylpiperidin-4-yl)amino)methyl)-3-methoxyphenyl)-3-chloropyridin-2-yl)-2-chlorophenyl)-2-methoxypyridin-3-yl)methyl)amino)piperidin-1-yl)ethan-1-one] | 6.52 | 8.81 |
| COc1nc(-c2cccc(-c3ccnc(-c4ccc(CNC5CCN(C(C)=O)CC5)c(OC)n4)c3Cl)c2Cl)ccc1CNC1CCN(C(C)=O)CC1 [Compound 627, 1-(4-(((6-(3-(5′-(((1-Acetylpiperidin-4-yl)amino)methyl)-3-chloro-6′-methoxy-[2,2′-bipyridin]-4-yl)-2-chlorophenyl)-2-methoxypyridin-3-yl)methyl)amino)piperidin-1-yl)ethan-1-one] | 7.36 | 8.71 |
| COc1nc(-c2cccc(-c3ccnc(-c4ccc(CN5CC6(CNC(=O)C6)C5)c(OC)n4)c3Cl)c2Cl)ccc1CN1CC2(CNC(=O)C2)C1 [Compound 628, 2-((3′-Chloro-4′-(2-chloro-3-(6-methoxy-5-((7-oxo-2,6-diazaspiro[3.4]octan-2-yl)methyl)pyridin-2-yl)phenyl)-6-methoxy-[2,2′-bipyridin]-5-yl)methyl)-2,6-diazaspiro[3.4]octan-7-one] | 7.57 | 9.55 |
| COc1nc(-c2cccc(-c3ccnc(-c4ccc(CNC5CCOCC5)c(OC)n4)c3Cl)c2Cl)ccc1CNC1CCOCC1 [Compound 629, N-((6-(2-Chloro-3-(3-chloro-6′-methoxy-5′-(((tetrahydro-2H-pyran-4-yl)amino)methyl)-[2,2′-bipyridin]-4-yl)phenyl)-2-methoxypyridin-3-yl)methyl)tetrahydro-2H-pyran-4-amine] | 6.94 | 9.18 |
| COc1nc(-c2cccc(-c3ccnc(-c4ccc(CNC[C@@H]5CCC(=O)N5)c(OC)n4)c3Cl)c2Cl)ccc1CNC[C@@H]1CCC(=O)N1 [Compound 630, (S)-5-((((6-(2-Chloro-3-(3-chloro-6′-methoxy-5′-(((((S)-5-oxopyrrolidin-2-yl)methyl)amino)methyl)-[2,2′-bipyridin]-4-yl)phenyl)-2-methoxypyridin-3-yl)methyl)amino)methyl)pyrrolidin-2-one] | 7.30 | 9.77 |
| COc1cc(-c2nccc(-c3cccc(-c4ccc5c(CN(C)C6CCOCC6)cn(C)c5n4)c3Cl)c2Cl)ccc1CNC1CCOCC1 [Compound 635, N-((6-(2-Chloro-3-(3-chloro-2-(3-methoxy-4-(((tetrahydro-2H-pyran-4-yl)amino)methyl)phenyl)pyridin-4-yl)phenyl)-1-methyl-1H-pyrrolo[2,3-b]pyridin-3-yl)methyl)-N-methyltetrahydro-2H-pyran-4-amine] | 6.63 | 9.72 |
| COc1nc(-c2cccc(-c3cncc(-c4ccc(CNC5CCN(C(C)=O)CC5)c(OC)n4)c3Cl)c2Cl)ccc1CNC1CCN(C(C)=O)CC1 [Compound 639, 1-(4-(((6-(3-(5-(((1-acetylpiperidin-4-yl)amino)methyl)-4′-chloro-6-methoxy-[2,3′-bipyridin]-5′-yl)-2-chlorophenyl)-2-methoxypyridin-3-yl)methyl)amino)piperidin-1-yl)ethan-1-one] | 7.64 | 9.72 |
| COc1nc(-c2cccc(-c3cncc(-c4ccc(CN5CC6(CNC(=O)C6)C5)c(OC)n4)c3Cl)c2Cl)ccc1CN1CC2(CNC(=O)C2)C1 [Compound 640, 2-((4′-Chloro-5′-(2-chloro-3-(6-methoxy-5-((7-oxo-2,6-diazaspiro[3.4]octan-2-yl)methyl)pyridin-2-yl)phenyl)-6-methoxy-[2,3′-bipyridin]-5-yl)methyl)-2,6-diazaspiro[3.4]octan-7-one] | 7.58 | 9.66 |
| COc1cc(-c2cncc(-c3cccc(-c4ccc(CNC5CCN(C(C)=O)CC5)c(OC)n4)c3Cl)c2Cl)ccc1CNC1CCN(C(C)=O)CC1 [Compound 641, 1-(4-(((6-(3-(5-(4-(((1-Acetylpiperidin-4-yl)amino)methyl)-3-methoxyphenyl)-4-chloropyridin-3-yl)-2-chlorophenyl)-2-methoxypyridin-3-yl)methyl)amino)piperidin-1-yl)ethan-1-one] | 6.97 | 10.05 |
